Values quoted from earlier work, collected in patent US10940128B2, “Injectable melphalan compositions comprising a cyclodextrin derivative and methods of making and using the same” (CYDEX PHARMACEUTICALS, INC., priority 2009, dated 2021).
Read-outs that look alike come from different tables or passages of the source.

Columns and labels:
certain animal tumors = conditions: in vivo; cited from earlier work
plasma proteins = conditions: cited from earlier work
[1] = water (pH 7); cited from earlier work
[2] = patients who have received intravenous melphalan; cited from earlier work
[3] = cited from earlier work; for Mean (±SD) peak melphalan plasma concentrations: myeloma patients; for clearance of melphalan: repeat dosing of 0.5 mg/kg every 6 weeks

| SMILES | activity against certain animal tumors compared with melphalan (certain animal tumors) | extent of melphalan binding to plasma proteins (plasma proteins) | drug (covalently) irreversibly bound to plasma proteins (plasma proteins; plasma) | share of the plasma protein binding accounted for by α1-acid glycoprotein (plasma proteins; plasma) | solubility in water [1] | hypersensitivity reactions, including anaphylaxis, share of patients [2] | steady-state volume of distribution ([3]; after intravenous administration of 50 mg of melphalan) | Mean (±SD) peak melphalan plasma concentrations ([3]; 10 mg/m^2 dose) | Mean (±SD) peak melphalan plasma concentrations ([3]; 20 mg/m^2 dose) | clearance of melphalan ([3]; after the first course) | clearance of melphalan ([3]; after the third course) |
| --- | --- | --- | --- | --- | --- | --- | --- | --- | --- | --- | --- |
| N[C@H](Cc1ccc(N(CCCl)CCCl)cc1)C(=O)O [medphalan] | less active |  |  |  |  |  |  |  |  |  |  |
| N[C@@H](Cc1ccc(N(CCCl)CCCl)cc1)C(=O)O [melphalan, 4-[bis(chloroethyl)amino]phenylalanine] |  | 60% to 90 | Approximately 30% | about 20% | practically insoluble | approximately 2% | 0.5 L/kg | 1.2 ± 0.4 µg/mL | 2.8 ± 1.9 µg/mL | 0.486 L/h/kg | 0.33 L/h/kg |
